Reference: US11051515B2, “3-acyl-benzamides and their use as herbicides” (Bayer Aktiengesellschaft, priority 2017, dated 2021)

Columns and labels:
ECHCG [1] = experiment: Pre-emergence action against ECHCG; type: in vivo, Echinochloa crus-galli; conditions: for pest or weed control at 320 g/ha: Echinochloa crus-galli, 504 h, pre-emergence, dosage 320 g/ha, scored visually after 3 weeks vs untreated controls, read-out: Pre-emergence action against ECHCG (herbicidal activity); for Herbicidal efficacy against ECHCG: Table V3, pre-emergence, 80 g of a.i./ha
In short: (§1)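 Seeds sown in sandy loam in wood-fiber pots and covered with soil. Greenhouse growth; visual damage scored after 3 weeks versus untreated controls (100% = dead, 0% = like control).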

ALOMY [2] = experiment: Pre-emergence action against ALOMY; type: in vivo, Alopecurus myosuroides; conditions: for pest or weed control at 320 g/ha: Alopecurus myosuroides, 504 h, dosage 320 g/ha, pre-emergence, scored visually after 3 weeks vs untreated controls, 100% = plants have died, 0% = like control plants, read-out: Pre-emergence action against ALOMY (herbicidal activity in percent); for Herbicidal efficacy against ALOMY: 80 g of a.i./ha
In short: as §1

VERPE = experiment: Post-emergence action against VERPE; type: in vivo, Veronica persica; conditions: Veronica persica, 504 h, dosage 80 g/ha
In short: (§2)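 Post-emergence foliar spray on greenhouse plants at the one-leaf stage, using wettable-powder or emulsion-concentrate formulations in water (600 to […], plus 0.2% wetting agent). Damage scored by eye roughly 3 weeks later against untreated plants: 0% = like control, 100% = dead.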

ALOMY [3] = experiment: Post-emergence action against ALOMY; type: in vivo, Alopecurus myosuroides; conditions: for pest or weed control at 80 g/ha: Alopecurus myosuroides, 504 h, Dosage 80 g/ha, post-emergence
In short: as §2

STEME = experiment: Pre-emergence action against STEME; type: in vivo, Stellaria media; conditions: for pest or weed control at 320 g/ha: Stellaria media, 504 h, Dosage 320 g/ha, pre-emergence
In short: as §1

SETVI [4] = experiment: Pre-emergence action against SETVI; type: in vivo, Setaria viridis; conditions: for pest or weed control at 320 g/ha: Setaria viridis, 504 h, pre-emergence, dosage 320 g/ha, scored visually after 3 weeks vs untreated controls, read-out: SETVI (Table B8, pre-emergence herbicidal activity)
In short: as §1

CYPES [5] = experiment: Post-emergence action against CYPES; type: in vivo, Cyperus esculentus; conditions: for pest or weed control at 80 g/ha: Cyperus esculentus, 504 h, post-emergence, dosage 80 g/ha, visual assessment about 3 weeks after treatment vs untreated controls, read-out: Post-emergence action against CYPES (herbicidal action in percent)
In short: as §2

ECHCG [6] = experiment: Post-emergence action against ECHCG; type: in vivo, Echinochloa crus-galli; conditions: for pest or weed control at 80 g/ha: Echinochloa crus-galli, 504 h, post-emergence, dosage 80 g/ha, visual assessment about 3 weeks after treatment vs untreated controls, read-out: Post-emergence action against ECHCG (herbicidal action in percent); for Herbicidal efficacy against ECHCG: Table V16, post-emergence
In short: as §2

PHBPU [7] = experiment: Post-emergence action against PHBPU; type: in vivo, Pharbitis purpurea; conditions: for pest or weed control at 80 g/ha: Ipomoea purpurea, 504 h, post-emergence, dosage 80 g/ha
In short: as §2

PHBPU [8] = experiment: Pre-emergence action against PHBPU; type: in vivo, Pharbitis purpurea; conditions: for pest or weed control at 320 g/ha: Ipomoea purpurea, 504 h, Dosage 320 g/ha, pre-emergence
In short: as §1

VIOTR = experiment: Pre-emergence action against VIOTR; type: in vivo, Viola tricolor; conditions: for pest or weed control at 320 g/ha: Viola tricolor, 504 h, Dosage 320 g/ha, pre-emergence
In short: as §1

MATIN [9] = experiment: Pre-emergence action against MATIN; type: in vivo, Matricaria inodora; conditions: for pest or weed control at 320 g/ha: Tripleurospermum inodorum, 504 h, Dosage 320 g/ha, pre-emergence
In short: as §1

MATIN [10] = experiment: Post-emergence action against MATIN; type: in vivo, Matricaria inodora; conditions: for pest or weed control at 80 g/ha: Tripleurospermum inodorum, 504 h, post-emergence, dosage 80 g/ha, visual assessment about 3 weeks after treatment vs untreated controls, read-out: Post-emergence action against MATIN (herbicidal action in percent)
In short: as §2

ABUTH = experiment: Post-emergence action against ABUTH; type: in vivo, Abutilon theophrasti; conditions: Abutilon theophrasti, 504 h; post-emergence, dosage 80 g/ha, visual assessment about 3 weeks after treatment vs untreated controls; read-out: Post-emergence action against ABUTH (herbicidal action in percent)
In short: as §2

SETVI [11] = experiment: Post-emergence action against SETVI; type: in vivo, Setaria viridis; conditions: for pest or weed control at 80 g/ha: Setaria viridis, 504 h, post-emergence, dosage 80 g/ha, visual assessment about 3 weeks after treatment vs untreated controls, read-out: Post-emergence action against SETVI (herbicidal action in percent)
In short: as §2

CYPES [12] = experiment: Pre-emergence action against CYPES; type: in vivo, Cyperus esculentus; conditions: for pest or weed control at 320 g/ha: Cyperus esculentus, 504 h, pre-emergence, dosage 320 g/ha, scored visually after 3 weeks vs untreated controls, read-out: Pre-emergence action against CYPES (herbicidal activity); for Herbicidal efficacy against CYPES: 80 g of a.i./ha
In short: as §1

AMARE [13] = experiment: Pre-emergence action against AMARE; type: in vivo, Amaranthus retroflexus; conditions: for pest or weed control at 320 g/ha: Amaranthus retroflexus, 504 h, pre-emergence, dosage 320 g/ha, scored visually after 3 weeks vs untreated controls, read-out: Pre-emergence action against AMARE (herbicidal activity); for Herbicidal efficacy against AMARE: Table V3, pre-emergence, 80 g of a.i./ha
In short: as §1

AMARE [14] = experiment: Post-emergence action against AMARE; type: in vivo, Amaranthus retroflexus; conditions: for pest or weed control at 80 g/ha: Amaranthus retroflexus, 504 h, post-emergence, dosage 80 g/ha, visual assessment about 3 weeks after treatment vs untreated controls, read-out: Post-emergence action against AMARE (herbicidal action in percent); for Herbicidal efficacy against AMARE: 5 g of a.i./ha
In short: as §2

[15] = Table V2, pre-emergence, 20 g of a.i./ha
[16] = Table V15, post-emergence, 5 g of a.i./ha
[17] = Table V3, pre-emergence, 80 g of a.i./ha
[18] = Table V18, post-emergence, 20 g of a.i./ha
[19] = Table V9, pre-emergence, 80 g of a.i./ha
[20] = Table V7, pre-emergence, 20 g of a.i./ha
[21] = Table V4, pre-emergence, 20 g of a.i./ha
[22] = Table V16, post-emergence, 5 g of a.i./ha
[23] = Table V16, post-emergence, 20 g of a.i./ha

SMILES | pest or weed control at 320 g/ha (ECHCG [1]) | Herbicidal efficacy against ECHCG (ECHCG [1]) | pest or weed control at 320 g/ha (ALOMY [2]) | Herbicidal efficacy against ALOMY (ALOMY [2]; Table V3, pre-emergence) | pest or weed control at 80 g/ha (VERPE) | pest or weed control at 80 g/ha (ALOMY [3]) | pest or weed control at 320 g/ha (STEME) | pest or weed control at 320 g/ha (SETVI [4]) | pest or weed control at 80 g/ha (CYPES [5]) | pest or weed control at 80 g/ha (ECHCG [6]) | pest or weed control at 80 g/ha (PHBPU [7]) | pest or weed control at 320 g/ha (PHBPU [8]) | pest or weed control at 320 g/ha (VIOTR) | pest or weed control at 320 g/ha (MATIN [9]) | pest or weed control at 80 g/ha (MATIN [10]) | pest or weed control at 80 g/ha (ABUTH) | pest or weed control at 80 g/ha (SETVI [11]) | pest or weed control at 320 g/ha (CYPES [12]) | pest or weed control at 320 g/ha (AMARE [13]) | pest or weed control at 80 g/ha (AMARE [14]) | other results
Cn1nnnc1NC(=O)c1ccc(S(C)(=O)=O)c(C(=O)C2CC2)c1Cl [1-129] | 100% | 100 | 100% | 100 | 100% | 100% | 100% | 100% | 80% | 90% | 100% | 100% | 100% | 100% | 90% | 90% | 100% | 100% | 100% | 100% | ECHCG (ECHCG [1]; [15]): 90; Herbicidal efficacy against ALOMY (ALOMY [3]; [16]): 70; SETVI (SETVI [4]; [15]): 90; Herbicidal efficacy against CYPES (CYPES [5]; [16]): 60; Herbicidal efficacy against VIOTR (VIOTR; [17]): 100; MATIN (MATIN [9]; [15]): 90; Herbicidal efficacy against MATIN (MATIN [9]; [17]): 100; Herbicidal efficacy against MATIN (MATIN [10]; [16]): 80; Herbicidal efficacy against SETVI (SETVI [11]; [16]): 100; Herbicidal efficacy against CYPES (CYPES [12]; Table V3, pre-emergence): 100; AMARE (AMARE [13]; [15]): 90; Herbicidal efficacy against AMARE (AMARE [13]): 100; Herbicidal efficacy against AMARE (AMARE [14]; Table V15, post-emergence): 100
Cc1c(C(=O)Nc2nnnn2C)ccc(S(C)(=O)=O)c1C(=O)C1CC1 [1-9] | 100% |  | 90% |  | 100% | 100% | 80% | 100% | 80% | 90% | 100% |  | 100% | 100% | 100% | 90% | 100% | 80% | 100% | 90% | Herbicidal efficacy against ALOMY (ALOMY [3]; [18]): 80; Herbicidal efficacy against SETVI (SETVI [4]; [19]): 100; Herbicidal efficacy against CYPES (CYPES [5]; [18]): 70; Herbicidal efficacy against PHBPU (PHBPU [7]; [18]): 100; Herbicidal efficacy against PHBPU (PHBPU [8]; Table V6, pre-emergence, 80 g of a.i./ha): 60; Herbicidal efficacy against VIOTR (VIOTR; [20]): 70; Herbicidal efficacy against VIOTR (VIOTR; [19]): 100; Herbicidal efficacy against MATIN (MATIN [9]; [20]): 90; Herbicidal efficacy against MATIN (MATIN [10]; Table V17, post-emergence, 5 g of a.i./ha): 100; Herbicidal efficacy against MATIN (MATIN [10]; [18]): 100; Herbicidal efficacy against SETVI (SETVI [11]; [18]): 100; Herbicidal efficacy against CYPES (CYPES [12]; Table V6, pre-emergence): 70
CC(=O)c1c(S(C)(=O)=O)ccc(C(=O)Nc2nnnn2C)c1Cl [1-127] | 100% | 100 | 100% | 80 | 100% |  | 90% | 90% | 80% | 100% | 100% | 90% | 100% | 100% | 100% | 90% | 80% | 90% | 100% | 100% | Herbicidal efficacy against ALOMY (ALOMY [2]; Table V1, pre-emergence): 80; Herbicidal efficacy against STEME (STEME; [21]): 70; Herbicidal efficacy against ECHCG (ECHCG [6]; 5 g of a.i./ha): 100; Herbicidal efficacy against ECHCG (ECHCG [6]; 20 g of a.i./ha): 100; Herbicidal efficacy against PHBPU (PHBPU [7]; [22]): 70; Herbicidal efficacy against PHBPU (PHBPU [7]; [23]): 100; Herbicidal efficacy against VIOTR (VIOTR; Table V1, pre-emergence, 80 g of a.i./ha): 100; Herbicidal efficacy against VIOTR (VIOTR; [17]): 100; Herbicidal efficacy against MATIN (MATIN [9]; [17]): 90; Herbicidal efficacy against MATIN (MATIN [9]; [21]): 70; Herbicidal efficacy against MATIN (MATIN [10]; Table V14, post-emergence, 5 g of a.i./ha): 90; Herbicidal efficacy against MATIN (MATIN [10]; [22]): 90; Herbicidal efficacy against MATIN (MATIN [10]; [23]): 100; Herbicidal efficacy against CYPES (CYPES [12]; Table V1, pre-emergence): 90; Herbicidal efficacy against CYPES (CYPES [12]; Table V3, pre-emergence): 90; Herbicidal efficacy against AMARE (AMARE [13]): 100; Herbicidal efficacy against AMARE (AMARE [14]; Table V14, post-emergence): 100
